Data reported in paper PMC11242853, “The Antimicrobial Activity of Human Defensins at Physiological Non-Permeabilizing Concentrations Is Caused by the Inhibition of the Plasma Membrane H^+-ATPases” (International Journal of Molecular Sciences, 2024).
“Also recorded” adds a separate entry of the source. Where no end group is shown, it is not given here.

Tests used:
[1] = set-up: method as in 19 sources, ref 24; PMID 3290255; doi:10.1172/JCI113527; 24. Lehrer R.I. Ganz T. Szklarek D. Selsted M.E. Modulation of the in vitro candidacidal activity of human neutrophil defensins by target cell metabolism and divalent cations J. Clin. Invest. 1988 81 || [47]; PMID 11083633; doi:10.1128/AAC.44.12.3310-3316.2000; 47. Edgerton M. Koshlukova S.E. Araujo M.W. Patel R.C. Dong J. Bruenn J.A. Salivary histatin 5 and human neutrophil defensin 1 kill Candida albicans via shared pathways Antimicrob. Agents Chemother. 2 ||| ref 20 = [20]; PMID 17074797; doi:10.1128/AAC.00478-06; 20. Vylkova S. Nayyar N. Li W. Edgerton M. Human beta-defensins kill Candida albicans in an energy-dependent and salt-sensitive manner without causing membrane disruption Antimicrob. Agents Chemother. ||| ref 24, 62 (HNP-1); 62, 63 (HNP-4); 20 (hBD-2); 12, 20 (hBD-3); 34, 35, 64 cidal and 65, 66 static (lactoferrin) ||| ref 26 (HNP-1); 12 (HNP-4); 11 (hBD-2, hBD-3); 43, 67 (lactoferrin) ||| ref 14 (HNP-1); 23 (HNP-4); Yes 11, 13 / No 20 (hBD-2); No 20 / Yes 11 (hBD-3); 31, 34, 42 (lactoferrin) ||| ...; conditions: cited from earlier work; for candidacidal activity on C. albicans cells treated with CCCP: CCCP at pH 7.4; for Cell death inhibitors, intracellular: Azide: 24 (HNP-1); for Cell death inhibitors, intracellular: Azide / Cell death inhibitors, extracellular: Ca^2+ or Mg^2+: 20 (hBD-2, hBD-3); for Cidal/static: 62 (HNP-1), 62, 63 (HNP-4), 12, 20 (hBD-3), 34, 35, 64 cidal and 65, 66 static (lactoferrin); for Cidal/static / Cell death inhibitors, extracellular: K^+ or Na^+: 20 (hBD-2); for Antimicrobial range: Gm+ Gram-positive bacteria, Gm− Gram-negative bacteria, F fungi, V viruses, P protozoa, no reference given; for Membrane permeabilization: ref 14 (HNP-1), 23 (HNP-4), Yes 11, 13 / No 20 (hBD-2), No 20 / Yes 11 (hBD-3), 31, 34, 42 (lactoferrin); for Cell death inhibitors, extracellular: Ca^2+ or Mg^2+: 43 (lactoferrin); for Membrane depolarization: ref 26 (HNP-1), 12 (HNP-4), 11 (hBD-2, hBD-3), 43, 67 (lactoferrin); for Cell death inhibitors, extracellular: K^+ or Na^+: ref 68 (HNP-1), 69 (HNP-4), No 11, 12 / Yes 20 (hBD-3), 31, 36, 43 (lactoferrin)
[2] = tested on: P. aeruginosa cells; test: Permeability assay (propidium iodide uptake, flow cytometry), P. aeruginosa; assay type: cell-based, Pseudomonas aeruginosa; conditions: 90 min at 37 °C, Tris buffer, PI 1 µg/mL
Experimental: (§1) To determine whether the above microbicidal concentrations exert a permeabilizing effect on fungal and bacterial membranes, the influx of the fluorescent nucleic acid-binding dye propidium iodide (PI) in cells incubated with the peptides was assessed. In cells, dye uptake reflects membrane permeabilization, as PI itself cannot permeate through an intact phospholipid bilayer. […] To select an antimicrobial but non-permeabilizing concentration of each peptide for further assays, we defined as a non-permeabilizing inhibitory concentration (NPIC) the antimicrobial inhibitory concentration (≤10% viable cells) that permeabilized ≤ 10% of cells incubated (90 min at 37 °C) in buffer solution.

[3] = tested on: Lactococcus lactis subsp. lactis (strain IL1403); test: Antimicrobial spread-plate (CFU) killing assay, fermenting L. lactis; assay type: cell-based; conditions: fermentative conditions; range tested 0.062 to 2 µM; Tris buffer, 90 min at 37 °C
Experimental: Microbial susceptibility to the peptides was determined in a spread-plate assay as described previously. Briefly, cell suspensions (10^6 cells/mL) in Tris buffer (10 mM Tris-HCl, pH 7.4) were incubated for 90 min at 37 °C with 2-fold serial peptide dilutions. Peptide concentrations ranged from 0 to 2 μM. After incubation, the number of viable cells was determined by plating aliquots (100 μL) in duplicate on plates (SDA for C. albicans, TSA for P. aeruginosa, and M17G agarified medium for L. lactis) that had been dried for 30 min at room temperature in a laminar flow hood. Plates were incubated for 24–48 h at 30 °C (C. albicans and L. lactis) or 24 h at 37 °C (P. aeruginosa). Dilutions yielding 50–200 colonies were counted. Cell viability values, expressed as colony-forming units (CFUs), were calculated relative to the incubation without added peptides and represent the means ± standard deviation (SD) from duplicates of three independent experiments. For inhibition assays, unless otherwise noted, cell suspensions were preincubated (15 min at 37 °C) with the appropriate inhibitor prior to the addition of peptides, but the inhibitor was present throughout the incubation period with the peptide (90 min at 37 °C). Other specific experimental conditions are described as appropriate. […]

[4] = tested on: Pseudomonas aeruginosa PAO1; test: Antimicrobial spread-plate (CFU) killing assay, P. aeruginosa; assay type: cell-based; conditions: for non-permeabilizing inhibitory concentration (NPIC), P. aeruginosa: antimicrobial concentration (≤10% viable cells) that permeabilized ≤10% of cells, 10^6 cells/mL, Tris buffer pH 7.4, 90 min at 37 °C, from Figure 1 data, duplicates of three experiments
Experimental: as §1
Microbial susceptibility to the peptides was determined in a spread-plate assay as described previously. Briefly, cell suspensions (10^6 cells/mL) in Tris buffer (10 mM Tris-HCl, pH 7.4) were incubated for 90 min at 37 °C with 2-fold serial peptide dilutions. Peptide concentrations ranged from 0 to 2 μM. After incubation, the number of viable cells was determined by plating aliquots (100 μL) in duplicate on plates (SDA for C. albicans, TSA for P. aeruginosa, and M17G agarified medium for L. lactis) that had been dried for 30 min at room temperature in a laminar flow hood. Plates were incubated for 24–48 h at 30 °C (C. albicans and L. lactis) or 24 h at 37 °C (P. aeruginosa). Dilutions yielding 50–200 colonies were counted. Cell viability values, expressed as colony-forming units (CFUs), were calculated relative to the incubation without added peptides and represent the means ± standard deviation (SD) from duplicates of three independent experiments. For inhibition assays, unless otherwise noted, cell suspensions were preincubated (15 min at 37 °C) with the appropriate inhibitor prior to the addition of peptides, but the inhibitor was present throughout the incubation period with the peptide (90 min at 37 °C). Other specific experimental conditions are described as appropriate. In some experiments, the concentrations of human lactoferrin against C. albicans (5 μM), P. aeruginosa (1 μM), and L. lactis (0.065 μM) were used in the control assays. In various viability assays, BM2 peptide (0.25 μM), CCCP (50 μM), colistin (4 μg/mL), nystatin (50 μM), oligomycin A (16 μg/mL), piericidin A (32 μM), and TEA (10 mM) were used.

[5] = tested on: C. albicans cells; test: Oxygen consumption measurement (polarographic), C. albicans; assay type: cell-based, Candida albicans; conditions: after 30 min; defensins 2 x NPIC, human lactoferrin 20 μM, piericidin A 32 µM; preincubated 15 min at 37 °C; untreated cells 94% ± 2%; means ± SD, three experiments
Experimental: Oxygen consumption by C. albicans and P. aeruginosa cells was determined by polarographically using a biological oxygen monitor (dual digital-model 20; Rank Brothers Ltd., Cambridge, UK) at 25 °C. The apparatus consisted of a twin water-jacketed closed sample chamber, which enabled a control experiment to be conducted concurrently. The cells were grown to mid-log phase in SDB (C. albicans) or TSB (P. aeruginosa), washed twice in Tris buffer, and resuspended in the same buffer. Cell suspensions (approximately 10^7 cells/mL) were preincubated with defensins (2 x NPIC), human lactoferrin (20 μM), or piericidin A (32 μM) for 15 min at 37 °C. Oxygen consumption was recorded at 5-min intervals for a period of 30 min. Three independent experiments were performed, and the data are means ± SD.

| Substance | candidacidal activity on C. albicans cells treated with CCCP [1] | Cell death inhibitors, intracellular: Azide ([1]; Table 2, 34 (lactoferrin)) | Cidal/static ([1]; Table 2) | Antimicrobial range ([1]; Table 2) | ATP-efflux ([1]; Table 2) | Cell death inhibitors, intracellular: Antimycin A (+SHAM) ([1]; Table 2) | Membrane permeabilization ([1]; Table 2) | Cell death inhibitors, extracellular: Ca^2+ or Mg^2+ ([1]; Table 2, ref 24 (HNP-1)) | Cell death inhibitors, intracellular: CCCP or DNP ([1]; Table 2, ref 24 (HNP-1), 34 (lactoferrin)) | Cell death inhibitors, extracellular: Anoxia ([1]; Table 2, ref 24 (HNP-1), 34, 35 (lactoferrin)) | Membrane depolarization ([1]; Table 2) | ATP increment ([1]; Table 2, ref 47 (HNP-1), 35 (lactoferrin)) | Cell death inhibitors, extracellular: K^+ or Na^+ ([1]; Table 2) | concentration showing permeabilizing activity (increase in intracellular PI), P. aeruginosa [2] [µM] | calculated NPIC against fermenting L. lactis [3] [µM] | non-permeabilizing inhibitory concentration (NPIC), P. aeruginosa [4] [µM] | effect of piericidin A on bactericidal activity, P. aeruginosa ([4]; cells pretreated with 32 µM piericidin A, defensins at NPIC) | effect of CCCP on bactericidal activity, P. aeruginosa ([4]; preincubated 15 min at 37 °C with 50 µM CCCP at pH 7.4, peptides at NPIC) | oxygen consumption percentage of C. albicans [5] | pseudomonacidal activity (comparison among defensins) ([4]; 0–2 μM, 90 min at 37 °C, Tris buffer) |
| --- | --- | --- | --- | --- | --- | --- | --- | --- | --- | --- | --- | --- | --- | --- | --- | --- | --- | --- | --- | --- |
| HNP-1: human α-defensin, UniProtKB P59665, 30 amino acids, three disulfide bonds; purchased from PeptaNova | protected | Yes | Cidal | Gm +,Gm −,F,V,P | Yes | Yes | Yes | Yes (Ca^2+); also recorded: No (Mg^2+) | Yes | Yes | Yes | Yes | Yes | ≥ 0.5 | 0.125 | 0.5 | significantly (p < 0.001) protected | significant reduction | 87% ± 4% | – |
| HNP-4: human α-defensin, UniProtKB P12838, 33 amino acids; purchased from PeptaNova (VCSCRLVFCRRTELRVGNCLIGGVSFTYCCTRV; ends and bridges not checked; cysteine pairing not given here; UniProt P12838 64-96, looked up) | – | – | Cidal | Gm +,Gm −,F,V | – | – | Yes | – | – | – | Yes | – | – | – | – | 0.25 | – | – | 81% ± 3% | – |
| hBD-3: human β-defensin, UniProtKB Q5U7J2, 45 amino acids; purchased from PeptaNova (GIINTLQKYYCRVRGGRCAVLSCLPKEEQIGKCSTRGRKCCRRKK; Beta-defensin 103; UniProt P81534 23-67, looked up) | protected | Yes | Cidal | Gm +,Gm −, F,V,P | – | – | – | No | – | – | Yes | – | No and Yes | – | – | 0.25 | – | – | 79% ± 4% | most potent pseudomonacidal activity |
